Experimental data published in PMC2974656, “Selective killing of human immunodeficiency virus infected cells by non-nucleoside reverse transcriptase inhibitor-induced activation of HIV protease” (Retrovirology, 2010).

Columns and labels:
[1] = Cytotoxicity on uninfected control cells, EGFP fluorescence per well; type: cell-based; details: human, MT4-CMV-EGFP control cells (uninfected); 4 days; mean ± SD; tested up to 10 μM; read-out: Cytotoxicity on MT4-CMV-EGFP control cells CC50
Protocol: (§1) The cytotoxicity of inhibitors was determined in parallel on MT4-CMV-EGFP control cells and on MT4-LTR-EGFP-IIIB virus producing cells, respectively.

[2] = test system: HIV-1IIIB; experiment: Direct antiviral activity: MT4-LTR-EGFP cells infected with HIV-1IIIB, EGFP fluorescence; type: cell-based; details: Human immunodeficiency virus 1, 72 h, read-out: Inhibition of HIV replication in vitro EC50
Protocol: After 3 days of incubation, infected cells were quantified by determination of total EGFP fluorescence per well based on microscopy and subsequent image analysis. Threshold values were determined from the average pixel value plus 6 standard deviations from the uninfected control wells, and the median threshold from all control wells on a plate was defined as baseline GFP expression. Intensity values for the sample wells were then determined by subtracting the background threshold from each pixel value obtained from the image of the respective well and calculating the sum of net pixel intensities. Percent inhibition was calculated as 100 * (1 - (Sample - CC)/(VC - CC)).

[3] = design: method as in PMID 12545140; details: under therapy; cited from earlier work
[4] = test system: intracellular Gag processing by HIV PR; type: cell-based, HIV-1
Protocol: In previous studies, high concentrations of NNRTI (5 μM) were required to observe NNRTI mediated activation of intracellular HIV PR activity. […]. Towards this end, we developed a biochemical assay for gel independent quantitation of intracellular Gag processing by HIV PR in the context of a virus producing cell. We had previously shown that additional protein domains, consisting of small epitope tags or even the 27 kDa green fluorescent protein (EGFP), can be inserted between the MA and CA domains of the Gag and Gag-Pol polyproteins without affecting polyprotein production or processing by HIV PR [36]. Based on this, we designed a HIV reporter construct which contained a small N-terminal fragment ('alpha peptide') of Escherichia coli beta-galactosidase (β-Gal), flanked by two HIV PR recognition sites, between the MA and CA coding sequences of Gag (Figure 1A). […] This so called alpha complementation principle can be exploited for use in mammalian cells and has been employed for the establishment of various cell based biochemical assay systems. We reasoned that embedding of the small alpha peptide within the multi-domain polyproteins Gag or Gag-Pol, respectively, should impair its productive association with the omega subunit, while proteolytic release of the alpha peptide from the polyprotein by PR would allow the formation of enzymatically active β-Gal. This should allow us to monitor intracellular Gag and Gag-Pol processing through increased β-Gal activity.
Reconstituted β-Gal activity in cell lysates was measured by cleavage of the chromogenic substrate CPRG [42] as described in Methods.
The activity of β-Gal in cell lysates from transfected 293T cells was measured by enzymatic cleavage of the chromogenic β-Gal substrate chlorphenolred-β-D-galactopyranoside (CPRG, Roche; [42]). At 44 h post transfection, cells were briefly rinsed with PBS and suspended in reporter gene assay lysis buffer (Roche, 600 μl per 6-well dish) supplemented with a protease inhibitor mix (Roche). Cell suspensions were incubated for 10 min at room temperature and cell debris was subsequently removed by brief centrifugation. Five μl of supernatant were diluted in 96-well plates with 95 μl CPRG reaction buffer (50 mM potassium phosphate, pH 7.5, 1 mM MgCl2) and pre-warmed for 5 min to 37°C. 100 μl of pre-warmed reaction mix (100 μM CPRG in CPRG reaction buffer supplemented with protease inhibitor cocktail and 40 μM β-mercaptoethanol) were added and β-Gal mediated cleavage of CPRG was monitored by recording absorption at 592 nm every 2 min for 20 min at 37°C using a TECAN Safire multi-well reader. OD592 values were plotted over time and relative reaction rates (OD592/min) were determined from the initial linear velocities.

[5] = test system: MT4-LTR-EGFP-IIIB HIV-1 producing cells; experiment: in vitro; type: cell-based; details: summary of Table 1
Protocol: as §1

[6] = in vitro; type: cell-based; details: human, 4 days
Protocol: as §1

[7] = test system: Gag processing by HIV PR; experiment: Immunoblot analysis of Gag processing in transfected 293T cells; type: cell-based, HIV-1; details: 2 μM LPV
Protocol: 293T cells were seeded in 6-well plates and transfected with the indicated constructs using FuGene6 (Roche) according to the manufacturer's instructions. Cell lysates and tissue culture supernatants were harvested at 44-48 h post transfection. Virus was purified by ultracentrifugation through a 20% (w/w) sucrose cushion. Cell lysates, tissue culture supernatants or pelleted viral particles were separated by SDS-PAGE (17.5% acrylamide; acrylamide:bisacrylamide 200:1). Proteins were transferred to nitrocellulose by semi-dry blotting and detected using polyclonal antisera raised against recombinant HIV-1 CA or MA, or a commercial antiserum against β-Gal (Abcam, ab616), respectively.

[8] = test system: intracellular Gag processing by HIV PR; type: cell-based, HIV-1; details: 2 μM LPV, 48 h post transfection; DMSO control 0.109 min^-1

Row | SMILES | CC50 at 4 days [1] | EC50 [2] | Peak serum levels [3] | Gag processing or β-Gal activity, pCHIV.MAα variant with D25A mutation (PR-) ([4]; 5 μM EFV) | β-Gal activity, pCHIV.MAα 2PR (linked PR dimer) ([4]; 5 μM EFV) | β-Gal activity, pCHIV.MAα ([4]; 5 μM EFV, equal amounts of pCHIV.MAα and pCMVω) | Concentration required to achieve the maximal effect on β-Gal activity ([4]; 293T cells, 44 h post transfection) | Cytotoxicity on MT4-LTR-EGFP-IIIB cells, in words [5] | CC50 at 4 days ([6]; no DRV, mean ± SD, tested up to 10 μM, read-out: Cytotoxicity on MT4-LTR-EGFP-IIIB HIV-1 producing cells CC50) | CC50 at 4 days ([6]; CC50 on virus producing cells in the absence of DRV, one representative experiment (Fig. 3C), 4 parameter fit) | Gagα processing as determined by immunoblot [7] | β-Gal activity in the cell lysates ([4]; 2 μM LPV, result in words) | Relative rate of CPRG cleavage [8]
1 | O=C1Nc2ccc(Cl)cc2[C@@](C#CC2CC2)(C(F)(F)F)O1 [EFV, efavirenz] | > 10 µM | 0.0019 ± 0.0009 µM | micromolar range | no increase | No effect | significant increase | ~ 1 μM | less cytotoxic | 1.71 ± 0.43 µM | 2.44 µM |  |  | 
2 | Cc1cccc(C)c1OCC(=O)N[C@@H](Cc1ccccc1)[C@@H](O)C[C@H](Cc1ccccc1)NC(=O)[C@H](C(C)C)N1CCCNC1=O [LPV, lopinavir] |  |  |  |  |  |  |  |  |  |  | nearly completely blocked | reduced, but did not abolish | 0.054 min⁻¹
